US20250025443A1, “COMPOUNDS AND METHODS FOR TREATING CORONA VIRUSES” (CLEAR CREEK BIO, INC., priority 2021, published 2025)

These molecules were tested against SARS-CoV-2 Papain-Like Protease (PLpro) (Severe acute respiratory syndrome coronavirus 2 (2019-nCoV) (SARS-CoV-2), UniProt P0DTD1) (assay: biochemical). Settings: PLpro 6.25 nM, substrate 25 μM, 60 min at 25° C.; for more potent compounds PLpro 1 nM, 120 min; read-out: PLpro IC50.

| Structure (SMILES) | IC50 [µM] |
| --- | --- |
| Cc1ccc(O)cc1C(=O)N[C@H](C)c1cccc2ccccc12 [Compound 101, (R)-5-Hydroxy-2-methyl-N-(1-(naphthalen-1-yl)ethyl)benzamide] | 1 to 5 |

Same assay, conditions: PLpro enzymatic fluorescence assay; class symbols; read-out: PLpro IC50

| Structure (SMILES) | IC50 [µM] |
| --- | --- |
| [2H]C([2H])([2H])N1CC[C@H]1COc1ccc(C)c(C(=O)NC2(c3cc(OC)cc4ncccc34)CC2)c1 [Compound 732, (S)-N-(1-(7-Methoxyquinolin-5-yl)cyclopropyl)-2-methyl-5-((1-(methyl-d3)azetidin-2-yl)methoxy)benzamide] | < 0.1 |
| COc1cc(C2(NC(=O)c3cc(OCC4Cc5ccccc5CN4C)ccc3C)CC2)c2cccnc2c1 (stereo not shown) [Compound 799, N-(1-(7-Methoxyquinolin-5-yl)cyclopropyl)-2-methyl-5-((2-methyl-1,2,3,4-tetrahydroisoquinolin-3-yl)methoxy)benzamide] | < 0.1 |
| C=Cc1cc(C2(NC(=O)c3cc(OC[C@@H]4CCN4C)c(NC(C)=O)cc3C)CC2)c2cccnc2c1 [Compound 746, (S)-4-Acetamido-2-methyl-5-((1-methylazetidin-2-yl)methoxy)-N-(1-(7-vinylquinolin-5-yl)cyclopropyl)benzamide] | < 0.1 |
| Cc1ccc(OC[C@@H]2CCN2C)cc1C(=O)NC1(c2cc(OCC(C)(C)C)cc3ncccc23)CC1 [Compound 787, (S)-2-Methyl-5-((1-methylazetidin-2-yl)methoxy)-N-(1-(7-(neopentyloxy)quinolin-5-yl)cyclopropyl)benzamide] | < 0.1 |
| Cc1cccc(/C=C/c2cc(C3(NC(=O)c4cc(OC[C@@H]5CCN5C)ccc4C)CC3)c3cccnc3c2)c1 [Compound 690, (S,E)-2-Methyl-5-((1-methylazetidin-2-yl)methoxy)-N-(1-(7-(3-methylstyryl)quinolin-5-yl)cyclopropyl)benzamide] | < 0.1 |
| Cc1ccc2c(C3(NC(=O)c4cc(OC[C@@H]5CCN5C)ccc4C)CC3)cc(CCC(F)(F)F)cc2n1 [Compound 815, (S)-2-Methyl-N-(1-(2-methyl-7-(3,3,3-trifluoropropyl)quinolin-5-yl)cyclopropyl)-5-((1-methylazetidin-2-yl)methoxy)benzamide] | < 0.1 |
| C=C(C)c1cc(C2(NC(=O)c3cc(OC[C@@H]4CCCN4)ccc3C)CC2)c2cccnc2c1 [Compound 715, (S)-2-Methyl-N-(1-(7-(prop-1-en-2-yl)quinolin-5-yl)cyclopropyl)-5-(pyrrolidin-2-ylmethoxy)benzamide] | < 0.1 |
| Cc1ccc2c(C3(NC(=O)c4cc(OC[C@@H]5CCN5C)ccc4C)CC3)cc(N3CC(F)C3)cc2n1 [Compound 816, (S)—N-(1-(7-(3-Fluoroazetidin-1-yl)-2-methylquinolin-5-yl)cyclopropyl)-2-methyl-5-((1-methylazetidin-2-yl)methoxy)benzamide] | < 0.1 |
| Cc1ccc(OC[C@@H]2CCN2C)cc1C(=O)NC1(c2cc(-c3ccoc3)cc3ncccc23)CC1 [Compound 655, (S)—N-(1-(7-(Furan-3-yl)quinolin-5-yl)cyclopropyl)-2-methyl-5-((1-methylazetidin-2-yl)methoxy)benzamide] | < 0.1 |
| Cc1ccc(OC[C@@H]2CCN2C)cc1C(=O)NC1(c2cc(-c3ccc(C(C)N4CCCC4)s3)cc3ncccc23)CC1 (stereo partly drawn) [Compound 780, 2-Methyl-5-(((S)-1-methylazetidin-2-yl)methoxy)-N-(1-(7-(5-(1-(pyrrolidin-1-yl)ethyl)thiophen-2-yl)quinolin-5-yl)cyclopropyl)benzamide] | < 0.1 |

Same assay, conditions: SARS-CoV-2 PLpro enzymatic fluorescence assay; read-out: PLpro IC50

| Structure (SMILES) | IC50 [µM] |
| --- | --- |
| Cc1ccc(N)cc1C(=O)NC1(c2cccc3ccccc23)CC1 [Compound 147, 5-Amino-2-methyl-N-(1-(naphthalen-1-yl)cyclopropyl)benzamide] | 0.1 to 1 |
| Cc1ccc(N)cc1C(=O)NC(c1cccc2ccccc12)C(F)(F)F (stereo not shown) [Compound 183, 5-Amino-2-methyl-N-(2,2,2-trifluoro-1-(naphthalen-1-yl)ethyl)benzamide] | 1 to 5 |
| Cc1ccc(OCC2CCN2C)cc1C(=O)NC1(c2cccc3ccc(C(=O)O)cc23)CC1 (stereo not shown) [Compound 465, 8-(1-(2-Methyl-5-((1-methylazetidin-2-yl)methoxy)benzamido)cyclopropyl)-2-naphthoic acid] | 1 to 5 |
| CCCC1COc2cc(C(=O)NC3(c4cccc5ccccc45)CC3)c(C)cc21 (stereo not shown) [Compound 397, 5-Methyl-N-(1-(naphthalen-1-yl)cyclopropyl)-3-propyl-2,3-dihydrobenzofuran-6-carboxamide] | 0.1 to 1 |
| Cc1ccc(OCCN(C)C)cc1C(=O)NC1(c2ccc(Br)cc2)CC1 [Compound 258, N-(1-(4-Bromophenyl)cyclopropyl)-5-(2-(dimethylamino)ethoxy)-2-methylbenzamide] | > 5 |
| Cc1ccc(OCCN(C)C)cc1C(=O)NC1(c2cccc3c2CCCC3)CC1 [Compound 329, 5-(2-(Dimethylamino)ethoxy)-2-methyl-N-(1-(5,6,7,8-tetrahydronaphthalen-1-yl)cyclopropyl)benzamide] | 0.1 to 1 |
| Cc1cc2cc(CNC(=O)OC(C)(C)C)[nH]c2cc1C(=O)NC1(c2cccc3ccccc23)CC1 [Compound 180, tert-Butyl((5-methyl-6-((1-(naphthalen-1-yl)cyclopropyl)carbamoyl)-1H-indol-2-yl)methyl)carbamate] | 0.1 to 1 |
| Cc1cc2ccn(CCN)c2cc1C(=O)NC1(c2cccc3ccccc23)CC1 [Compound 203, 1-(2-Aminoethyl)-5-methyl-N-(1-(naphthalen-1-yl)cyclopropyl)-1H-indole-6-carboxamide] | 0.1 to 1 |
| CNCCOc1ccc(C)c(C(=O)NC2(c3cccc4ccccc34)CN(C)C2)c1 [Compound 499, 2-Methyl-N-(1-methyl-3-(naphthalen-1-yl)azetidin-3-yl)-5-(2-(methylamino)ethoxy)benzamide] | > 5 |
| Cc1ccc(NC2CNC2)cc1C(=O)NC1(c2cccc(-c3ccc(CN4CCCC4)s3)c2)CC1 [Compound 186, 5-(Azetidin-3-ylamino)-2-methyl-N-(1-(3-(5-(pyrrolidin-1-ylmethyl)thiophen-2-yl)phenyl)cyclopropyl)benzamide] | 0.1 to 1 |
| C#Cc1ccc(OCCN(C)C)cc1C(=O)NC1(c2cccc3ccccc23)CC1 [Compound 337, 5-(2-(Dimethylamino)ethoxy)-2-ethynyl-N-(1-(naphthalen-1-yl)cyclopropyl)benzamide] | > 5 |
| Cc1ccc(OCC2CCN2)cc1C(=O)NC1(c2cccc3ccccc23)CC1 (stereo not shown) [Compound 274, 5-(Azetidin-2-ylmethoxy)-2-methyl-N-(1-(naphthalen-1-yl)cyclopropyl)benzamide] | < 0.1 |
| CNCCOc1ccc(C)c(C(=O)N[C@@H](c2cccc3ccccc23)C(F)(F)F)c1 [Compound 349, (S)-2-Methyl-5-(2-(methylamino)ethoxy)-N-(2,2,2-trifluoro-1-(naphthalen-1-yl)ethyl)benzamide] | 0.1 to 1 |
| Cc1ccc(OC2CCNCC2)cc1C(=O)N[C@H](C)c1cccc2ccccc12 [Compound 162, (R)-2-Methyl-N-(1-(naphthalen-1-yl)ethyl)-5-(piperidin-4-yloxy)benzamide] | 0.1 to 1 |
| Cc1ccc(OCCN)cc1C(=O)N(C)C1(c2cccc3ccccc23)CC1 [Compound 211, 5-(2-Aminoethoxy)-N,2-dimethyl-N-(1-(naphthalen-1-yl)cyclopropyl)benzamide] | > 5 |
| Cc1ccc(OCC2COCCN2C)cc1C(=O)NC1(c2cccc3ccccc23)CC1 (stereo not shown) [Compound 302, 2-Methyl-5-((4-methylmorpholin-3-yl)methoxy)-N-(1-(naphthalen-1-yl)cyclopropyl)benzamide] | 0.1 to 1 |
| COc1cc(C2(NC(=O)c3cc(OC[C@@H]4CCN4C)ccc3C)CC2)c2cccnc2c1 [Compound 527, (S)-N-(1-(7-Methoxyquinolin-5-yl)cyclopropyl)-2-methyl-5-((1-methylazetidin-2-yl)methoxy)benzamide] | < 0.1 |
| COc1cc(C2(NC(=O)c3cc(OCC(C)N)ccc3C)CC2)c2ccccc2c1 (stereo not shown) [Compound 445, 5-(2-Aminopropoxy)-N-(1-(3-methoxynaphthalen-1-yl)cyclopropyl)-2-methylbenzamide] | < 0.1 |
| Cc1cc2cc(CN)[nH]c2cc1C(=O)NC1(c2ccc(-c3ccccc3)cc2)CC1 [Compound 244, N-(1-([1,1′-Biphenyl]-4-yl)cyclopropyl)-2-(aminomethyl)-5-methyl-1H-indole-6-carboxamide] | > 5 |
| Cc1cc2cc(CN3CCOCC3)[nH]c2cc1C(=O)N[C@H](C)c1cccc2ccccc12 [Compound 206, (R)-5-Methyl-2-(morpholinomethyl)-N-(1-(naphthalen-1-yl)ethyl)-1H-indole-6-carboxamide] | 1 to 5 |
| Cc1cc2cc[nH]c2cc1C(=O)NC1(c2cccc3ccccc23)CC1 [Compound 199, 5-Methyl-N-(1-(naphthalen-1-yl)cyclopropyl)-1H-indole-6-carboxamide] | 0.1 to 1 |
| Cc1ccc(NC2CNC2)cc1C(=O)NC1(c2cccc(-c3ccccc3)c2)CC1 [Compound 187, N-(1-([1,1′-Biphenyl]-3-yl)cyclopropyl)-5-(azetidin-3-ylamino)-2-methylbenzamide] | 1 to 5 |
| Cc1ccc(OCC2CCN2Cc2ccccc2)cc1C(=O)NC1(c2cccc3ccccc23)CC1 (stereo not shown) [Compound 330, 5-((1-Benzylazetidin-2-yl)methoxy)-2-methyl-N-(1-(naphthalen-1-yl)cyclopropyl)benzamide] | < 0.1 |
| Cc1cc2c3c([nH]c2cc1C(=O)NC1(c2cccc4ccccc24)CC1)C(=O)CC3 [Compound 334, 7-Methyl-N-(1-(naphthalen-1-yl)cyclopropyl)-3-oxo-1,2,3,4-tetrahydrocyclopenta[b]indole-6-carboxamide] | 1 to 5 |
| Cc1ccc(OCCN(C)C)cc1C(=O)NC1(c2cccc3ccncc23)CC1 [Compound 333, 5-(2-(Dimethylamino)ethoxy)-N-(1-(isoquinolin-8-yl)cyclopropyl)-2-methylbenzamide] | 0.1 to 1 |
| Cc1cc2cc(CNCc3ccccc3)[nH]c2cc1C(=O)NC1(c2cccc3ccccc23)CC1 [Compound 229, 2-((Benzylamino)methyl)-5-methyl-N-(1-(naphthalen-1-yl)cyclopropyl)-1H-indole-6-carboxamide] | < 0.1 |
